# According to US4845123A, “Reduction in vivo of the inappropriate levels of endogenous and environmental-derived compounds by sustained-release inhibitors of β- g” (priority 1985, dated 1989):
# “Also recorded” adds a separate entry of the source.
# Tests used:
# 60 kd oncofetal protein [1] = conditions: rat, in vivo; for Plasma concentration of the 60 kd protein at 21 days post-treatment with PAH: ip
# [2] = rat, in vivo, iv, cited from earlier work
# 60 kd oncofetal protein [3] = test: effect of β-glucuronidase inhibitors on carcinogen induction of the 60 kd factor in plasma (cell-free RNA transport assay); assay type: in vivo, rat; conditions: rat, in vivo
# serum β-glucuronidase = biological target: T1, serum β-glucuronidase (Rattus norvegicus, UniProt P06760); test: in vivo; assay type: in vivo; conditions: rat, in vivo
# T1 sequence (P06760 23-648): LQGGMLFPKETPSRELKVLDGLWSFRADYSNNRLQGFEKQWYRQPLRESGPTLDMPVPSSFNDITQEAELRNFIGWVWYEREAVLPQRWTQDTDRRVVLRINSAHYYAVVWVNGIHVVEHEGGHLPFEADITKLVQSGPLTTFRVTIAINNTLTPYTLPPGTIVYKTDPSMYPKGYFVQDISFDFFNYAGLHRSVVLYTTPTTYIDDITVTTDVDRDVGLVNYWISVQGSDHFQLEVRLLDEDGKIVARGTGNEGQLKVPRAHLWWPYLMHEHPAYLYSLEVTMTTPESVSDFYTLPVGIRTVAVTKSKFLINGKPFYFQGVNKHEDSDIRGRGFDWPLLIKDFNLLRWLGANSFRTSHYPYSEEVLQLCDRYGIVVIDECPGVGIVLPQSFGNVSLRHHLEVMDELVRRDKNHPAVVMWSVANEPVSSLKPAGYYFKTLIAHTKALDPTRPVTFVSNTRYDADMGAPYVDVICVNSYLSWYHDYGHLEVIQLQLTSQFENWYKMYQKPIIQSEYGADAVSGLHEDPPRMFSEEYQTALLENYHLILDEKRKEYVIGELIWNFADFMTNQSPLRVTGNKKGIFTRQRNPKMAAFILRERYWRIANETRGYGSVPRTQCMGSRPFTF
# Description: GL was synthesized and microencapsulated to give sustained-release GL (EGL), by an established procedure used to microencapsulate ascorbic acid, as reported in Samejima, M. et al., Chem. Pharm. Bull., (Tokyo) 1982, 30:2894-2899. In this procedure, the GL as a fine powder is added to a stirred mixture of cyclohexane, polyisobutylene as coacervation-inducing agent and ethylcellulose as wall-forming material. The addition of GL is at 78° C., then phase separation is induced by lowering the temperature first to 40° C., then to 25° C. The microcapsules, which have thick walls, are washed with cyclohexane and dried. […] DAGDL, calcium D-glucarate (CGT), and potassium hydrogen D-glucarate (PGT) were synthesized. For comparison of efficacy of the inhibitors, 1,5 mmoles/kg (GL, EGL or DAGDL) or 4.5 mmoles/kg (CGT or PGT) of the inhibitor in 1.0 ml of sesame oil or vehicle only (controls) was administered to rats by stomach tube at zero time. Blood samples were obtained from different rats by cardiac puncture under ether anesthesia. The serum was prepared and assayed for β-glucuronidase activity using a commerical diagnostic kit sold by Sigma Chemical Company, St. Louis, MO. The assay is based on the hydrolysis of phenolphthalein-glucuronide and quantitation of phenolphthalein in alkaline medium at […]. For tests of anti-carcinogencity, the inhibitors were administered by stomach tube in 1.0 ml of sesame oil 30 minutes before and again at 2.5 hours after the carcinogen, for DAGDL, or 3 hours and 30 minutes before the carcinogen, for EGL, CGT, and PGT. The controls received sesame oil only by stomach tube.
# At the time periods indicated above blood samples were obtained from rats under ether aneathesia by cardiac puncture, the serum was then prepared and assayed for β-glucuronidase activity using a commercial diagnostic kit sold by Sigma Chem. Co., St. Louis, MO.
# For the inhibition of the initiation stage, CGT was given by gavage in two doses (4.5 mmoles/kg/dose) at 3 hours and again at 0.5 hours before carcinogen administration. […] The concentrations of CGT were incorporated into the powdered chow diet. The blood samples were obtained 10 days after the initiation of the CGT feeding.
# DAGDL or GL (1.5 mmol/kg) in 1.0 ml of sesame oil, or vehicle only (controls) was administered to rats by stomach tube at zero time. […] The serum was prepared and assayed for β-glucuronidase activity using a commercial diagnostic kit sold by Sigma Chemical Company, St. Louis, MO. The assay is based on the hydrolysis of phenolphthalein-glucuronide and quantitation of phenolphtalein in alkaline medium at 550 nm.
# [4] = equilibrated aqueous solution; cited from earlier work
# bladder cancer = conditions: dog, in vivo; cited from earlier work
# bladder tumor = conditions: rat, in vivo; cited from earlier work
# bladder tumors = conditions: human, in vivo; cited from earlier work
# [5] = in vivo; cited from earlier work
# β-glucuronidase = conditions: cited from earlier work
Structure (SMILES),Treatment -I: total concentration of 60 kd factor induced by the carcinogen (60 kd oncofetal protein [1]),Plasma concentration of the 60 kd protein at 21 days post-treatment with PAH (60 kd oncofetal protein [1]),further results
"CC(=O)Nc1ccc2c(c1)Cc1ccccc1-2 [2-Acetyalaminofluorine, 2-acetylaminofluorene]",5.11,,
c1ccc2c(c1)Cc1ccccc1-2 [Fluorene],,0.0 units,
"Nc1ccc2ccccc2c1 [2-Naphthylamine, 2-naphthylamine]",3.29,,
"CCCCN(CCCC)N=O [N--Nitrosodibutylamine, N-nitroso-N,N-dibutylamine]",5.44,,
"COc1cc2c(c3oc(=O)c4c(c13)CCC4=O)[C@@H]1C=CO[C@@H]1O2 [Aflatoxin B1, aflatoxin B1]",4.37,,
"CN(N=O)C(N)=O [N--Nitrosomethylurea, N-nitroso-N-methylurea]",4.69,,"60 kd factor in plasma, MNU without inhibitor (60 kd oncofetal protein [1]): 4.6"
c1ccc2cc3ccccc3cc2c1 [Anthracene],,0.0,
"COc1cc2c(c3oc(=O)c4c(c13)CCOC4=O)[C@@H]1CCO[C@@H]1O2 [Aflatoxin G2, aflatoxin G2]",3.80,,
c1ccc2c(c1)c1cccc3ccc4cccc2c4c31 [Benzo[e]pyrene],,3.37,
"CNNC [1,2-Dimethylhydrazine, 1,2-dimethylhydrazine]",5.40,,
"CCN(N=O)C(N)=O [N--Nitrosoethylurea, N-nitroso-N-ethylurea]",4.50,,
c1ccc2c(c1)cc1ccc3cccc4ccc2c1c34 [Benzo[a]pyrene],7.73,7.73,"dose excreted in bile ([2]; 6 h): ~60%; biliary metabolites being glucuronides [2]: 40%; overall inhibition of PAH-mediated carcinogenesis, as inhibition of 60 kd oncofetal protein induction (60 kd oncofetal protein [3]): 75%"
"O=C(O)[C@@H](O)[C@@H](O)[C@H](O)[C@@H](O)C(=O)[O-].[K+] [PGT, potassium hydrogen D-glucarate]",,,time-course of serum β-glucuronidase inhibition (serum β-glucuronidase): prolonged inhibition; Percent Inhibition of the induction of the 60 kd factor (60 kd oncofetal protein [3]): 65%; Treatment +I: total concentration of 60 kd factor (60 kd oncofetal protein [3]): 2.25
"C=CCc1ccc2c(c1)OCO2 [Safrole, safrole]",5.90,,
"O=[N+]([O-])c1ccc2ccc3cccc4ccc1c2c34 [1-Nitropyrene, reference compound]",,5.30 units,"overall inhibition of PAH-mediated carcinogenesis, as inhibition of 60 kd oncofetal protein induction (60 kd oncofetal protein [3]): 50%"
"CCN(CC)N=O [N--Nitrosodiethylamine, N-nitroso-N, N-diethylamine]",4.21,,
O=C(O)[C@@H](O)[C@@H](O)[C@H](O)[C@@H](O)C(=O)O [glucarate],,,fraction of glucarate converted to GL [4]: approximately one-third
"O=C(O)[C@@H](O)[C@H]1OC(=O)[C@H](O)[C@H]1O [GL, D-glucaro-1,4-lactone, reference compound]",,,prevention of bladder cancer induced with 2-naphthylamine (bladder cancer): without any success; effect on 2-acetylaminofluorene carcinogenesis (bladder tumor): unsuccessful; clinical effect in prevention of bladder tumors (bladder tumors): failed to show any clear beneficial effects; administered compound excreted unchanged in urine [5]: less than 50%; rate of metabolism and excretion [5]: rapidly metabolized; depression of serum β-glucuronidase (serum β-glucuronidase): approximately 50%; reversibility of inhibition by prolonged dialysis (serum β-glucuronidase): could be reversed; time-course of serum β-glucuronidase inhibition (serum β-glucuronidase): only a transient inhibition; also recorded: transient nature of the inhibition; inhibition of β-glucuronidase in vitro (β-glucuronidase): potent inhibitor
"Cc1ccc2cc3c(ccc4ccccc43)c3c2c1CC3 [3-Methylcholanthrene, 3-methyl-1,2-dihydrobenz[j]aceanthrylene]",5.62,6.82,"overall inhibition of PAH-mediated carcinogenesis, as inhibition of 60 kd oncofetal protein induction (60 kd oncofetal protein [3]): 50%"
"Cc1c2ccccc2c(C)c2c1ccc1ccccc12 [7,12-Dimethylbenz[a]anthracene, 7,12-dimethylbenz[a]anthracene]",,6.42,"overall inhibition of PAH-mediated carcinogenesis, as inhibition of 60 kd oncofetal protein induction (60 kd oncofetal protein [3]): 75%"
c1ccc2cc3c(ccc4ccccc43)cc2c1 [Benz[a]anthracene],,4.92,
"Cc1c2ccccc2c(C)c2c1ccc1ccc(F)cc12 [2-Fluoro-7,12-dimethylbenz[a]anthracene]",,0.0,
c1cc2ccc3cccc4ccc(c1)c2c34 [Pyrene],,0.0,
"CN(C)N=O [N--Nitrosodimethylamine, N-nitroso-N,N-dimethylamine]",3.40,,
